Assay results: PubChem BioAssay AID463136 (University of Pittsburgh Molecular Library Screening Center, 2010)
Inconclusive results are not listed. Activity calls are given as the source filed them. No rule for the calls is given here.

Legend:
[1] = dynein cargo transport inhibitors, potency, dose response, imaging, high-content imaging (AID 463136); details: HCS imaging, dynein-mediated cargo transport inhibition; inhibition at max concentration; at 50 µM; stronger effect = higher value;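 also: mouse mammary adenocarcinoma 3617.4 cells expressing GFP-tagged rat glucocorticoid receptor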; as to inhibition: reference of the scale not given here
[2] = test system: HCS imaging, dynein-mediated cargo transport inhibition; assay: as above

| SMILES | inhibition [1] | IC50 [2] |
| --- | --- | --- |
| COc1ccc(-n2nc(C#N)c(Cl)cc2=O)cc1 | 65.4% | 8.09 µM |
| COc1ccc(-n2c(C)cc(C(=O)CCl)c2C)cc1 | 80.4% | 13.1 µM |
| CCC(=O)Nc1ccc(C(=O)Cn2ncc(Cl)c(Cl)c2=O)cc1 | 72.4% | 15.7 µM |
| O=c1[nH]sc2ccccc12 | 91% | 10.9 µM |
| Cc1ccc(C(=O)NC(C#N)=C(Cl)Cl)cc1 | 82.3% | 6.71 µM |
| O=C(CCl)Nc1cc(SCC(O)CO)cc([N+](=O)[O-])c1 (stereo not drawn) | 88% | 10.5 µM |
| COC(=O)c1cc([N+](=O)[O-])c(-n2cncn2)c([N+](=O)[O-])c1 | 12.4% | > 50 µM (inactive) |
| O=[N+]([O-])c1c(NCCCO)cc(Sc2ccc(Cl)cc2)c2nonc12 | 30.9% | > 50 µM (inactive) |
| Cc1nc2c(=O)n(C)c(=O)n(C)c2nc1Cl | 62.9% | 9.82 µM |
| Cn1c(=O)c(NCCc2ccccc2)c2c3c(cccc31)C(=O)c1ccccc1-2 | 19% | > 50 µM (inactive) |
| Cc1ccc(/C=C2\CCC3=C2OC(N)=C(C#N)C3c2ccc(C)cc2)cc1 (stereo not drawn) | 111% | 3.23 µM |
| CCOC(=O)N1C/C(=C\c2ccccc2)C(=O)/C(=C/c2ccccc2)C1 | 78.7% | 32.8 µM |
| CC(C)(C)NC(=S)N/N=C\c1ccc(-c2ccc([N+](=O)[O-])cc2)o1 | 3.06% | > 50 µM (inactive) |
| CCN(CC)c1ccc(/C=C/[N+](=O)[O-])cc1 | 0.227% | > 50 µM (inactive) |
| COc1ccc(-n2ncc(Cl)c(Cl)c2=O)cc1 | 84.7% | 21.6 µM |
| COc1ccc(/C=C/C(=O)c2c(O)c(OC)c3occc3c2OC)cc1 | 30.2% | > 50 µM (inactive) |
| CCOC(=O)C(=Cc1ccc(OCc2ccc([N+](=O)[O-])cc2)c(OC)c1)C(=O)OCC | 2.92% | > 50 µM (inactive) |
| O=C(CCl)Nc1ccc(-c2ccccc2)cc1 | 66% | 14.3 µM |
| N#C/C(=C/c1ccc(N2CCCCCC2)o1)c1ccc(Cl)cc1 | 23.1% | > 50 µM (inactive) |
| CCOC(=O)CC1C(=O)NCCN1c1nc2ccc(C)cn2c(=O)c1/C=C1\SC(=S)N(C(C)CC)C1=O (stereo not drawn) | 80.8% | 27.3 µM |
| C#CC(=O)N(c1ccc(OC)c(OC)c1)C(C(=O)NC1CCCC1)c1cccs1 (stereo not drawn) | 40.2% | > 50 µM (inactive) |

| SMILES | inhibition [1] | IC50 [2] |
| --- | --- | --- |
| Cc1ccccc1NC(=O)C(Cl)=C(Cl)Cl | 77.1% | 13.4 µM |
| O=[N+]([O-])c1ccc(NCc2ccccc2)c2nonc12 | 99.5% | 26.9 µM |
| CCCn1c(CC)nc([N+](=O)[O-])c1S(=O)(=O)c1ccccc1 | 85.2% | 7.21 µM |
| Cc1ccc(CN=Cc2[nH]c3ccc(Br)c(Cl)c3c2O)cc1 | 99.2% | 5.14 µM |
| Nc1c(C(=O)c2cccs2)sc2nsc(SCCN3CCCCC3)c12 | 11.4% | > 50 µM (inactive) |
| COC(CNC(=O)c1ccc2c3c(onc13)-c1ccccc1C2=O)OC | 99.6% | 29.3 µM |
| O=C(OCCN1C(=O)c2cccc3c(N4CCOCC4)ccc(c23)C1=O)c1ccc(Cl)cc1Cl | 2.73% | > 50 µM (inactive) |
| O=c1cc(C(F)(F)F)c2cc3c4c(c2o1)CCCN4CCC3 | 99.6% | 5.51 µM |
| Cc1cc(C)c2c(=O)n(CC(=O)NCCCN3CCN(c4ccccc4F)CC3)sc2n1 | 96.3% | 14 µM |
| Cn1cc(C(=O)CCl)c2ccccc21 | 75% | 22.5 µM |
| COc1cccc(N2C(=O)NC(=O)/C(=C/c3ccc([N+](=O)[O-])s3)C2=O)c1 | 87.8% | 10.7 µM |
| Cc1ccc(N2C(=N)/C(=C3/Nc4ccccc4S3)C(c3ccccc3)C2=O)cc1 (stereo not drawn) | 81.8% | 23.2 µM |
| CCN1/C(=C/C=C/c2oc3ccc4ccccc4c3[n+]2CC)Oc2ccc3ccccc3c21 | 96.7% | 2.51 µM |
| COc1ccc(N(C(=O)CCl)C(C(=O)NC2CCCCC2)c2cccnc2)cc1 (stereo not drawn) | 85.5% | 13.3 µM |
| O=[N+]([O-])c1ccc(N/N=C/c2ccc[nH]2)cc1 | 148% | 18 µM |
| COCc1cc(S(=O)c2ccc(Cl)cc2)nc(C)n1 (stereo not drawn) | 86.5% | 15.6 µM |
| O=C(CCl)N(Cc1cccc([N+](=O)[O-])c1)c1cccc(Cl)c1 | 75% | 12.2 µM |
| N#CC(C#N)=C1C=C2C=C(N3CCOCC3)CCC2CC1 (stereo not drawn) | 99% | 42.8 µM |
| CC(=O)OCCCNc1cc(SCc2ccco2)c2nonc2c1[N+](=O)[O-] | 67.7% | 35.1 µM |
| CCCCCCN(C(=O)CCl)c1ccccc1 | 80.3% | 17.2 µM |
| CNCc1ccccc1Sc1cc(O)ccc1O | 74.1% | 38.5 µM |

| SMILES | inhibition [1] | IC50 [2] |
| --- | --- | --- |
| COC(C/C=C/C(=O)COCc1ccccc1)OC | 69.3% | 8.5 µM |
| COC(CN(C(=O)CCl)C(C(=O)NC1CCCCC1)c1ccc(Cl)cc1)OC (stereo not drawn) | 82.6% | 22.6 µM |
| CCOC(=O)C(=Cc1cc(=O)c(OC)co1)C(=O)OCC | 87.9% | 6.45 µM |
| Cc1ccc(NC(=O)C(=Cc2ccc(C(=O)O)cc2)C(=O)Nc2ccc(C)cc2C)c(C)c1 | 78% | 11.1 µM |
| Cc1cc(-c2n[nH]c(=S)n2/N=C/C(Br)=C/c2ccccc2)n[nH]1 | 82.9% | 16.5 µM |
| CCOc1cc(/C=C\[N+](=O)[O-])ccc1OCC(=O)N1CCOCC1 | 76.4% | 37.4 µM |
| CN(C)CCCN(C(=O)CCOc1ccccc1)c1nc2c(F)cccc2s1 | 30.5% | > 50 µM (inactive) |
| Cc1ccc(Sc2ccc(NC(=O)CCl)cc2)cc1C | 16.3% | > 50 µM (inactive) |
| O=C(/C=C/c1ccccc1)/C=C/c1ccccc1 | 45.9% | > 50 µM (inactive) |
| O=c1c(Cl)c(Cl)cnn1-c1ccccc1 | 81.7% | 9.57 µM |
| CC(=O)O[C@@H]1C[C@H]2C(C)(C)C(=O)C=C[C@]2(C)[C@H]2CC[C@@]3(C)[C@H](c4ccoc4)OC(=O)[C@H]4O[C@]43[C@@]21C | 77.9% | 33.6 µM |
| CN(Cc1ccc(Cl)s1)C(=O)CCl | 75.8% | 8.74 µM |
| Cc1cc(C(=O)Cn2ncc(Cl)c(Cl)c2=O)c(C)n1CC(F)(F)F | 78.6% | 7.79 µM |
| Cc1cc(C)c(C)c(S(=O)(=O)ON2C(=O)c3ccccc3C2=O)c1C | -3.7% | > 50 µM (inactive) |
| N#CC(C#N)=C1C=C2C=C(N3CCCCC3)CCC2CC1 (stereo not drawn) | 99.5% | 35.8 µM |
| CCCn1nc([N+](=O)[O-])c(C(C#N)c2nc3ccccc3s2)c(Cl)c1=O (stereo not drawn) | 97% | 14.6 µM |
| Cn1c(=O)c(Nc2ccc(Cl)cc2)c2c3c(cccc31)C(=O)c1ccccc1-2 | 97.8% | 31 µM |
| CC(C)(C)C1C/C(=C/c2ccco2)C(=O)/C(=C/c2ccco2)C1 (stereo not drawn) | 101% | 24.9 µM |
| CC(C)n1c(O)c(C2c3cc(Cl)ccc3Oc3[nH]c(=O)n(C(C)C)c(=O)c32)c(=O)[nH]c1=O (stereo not drawn) | 64.2% | 13.6 µM |
| CC1(C)CC(=O)C2=C(C1)OC1=C(C(=O)CC(C)(C)C1)C2c1ccc(O)cc1O | 65.8% | 22.6 µM |
| O=C(Nc1ccc(F)cc1)c1nn(-c2ccccc2)c(=O)cc1Cl | 76.4% | 35.7 µM |

| SMILES | inhibition [1] | IC50 [2] |
| --- | --- | --- |
| Cc1nc([N+](=O)[O-])c(Br)n1CC(=O)c1ccc(F)cc1 | 92.2% | 3.25 µM |
| CCCCc1ccc(/C=C2\C(=O)c3ccccc3C(O)=C2C(=O)OCC)cc1 | 15.5% | > 50 µM (inactive) |
| O=C1C(Cl)=C(Nc2ccc3cn[nH]c3c2)C(=O)c2ccccc21 | 66.6% | 18.2 µM |
| CCC(=O)Nc1cccc(C(=O)/C=C/c2ccc(F)cc2)c1 | 74.9% | 34.1 µM |
| COC(=O)c1cc(=O)n(Cc2ccc(F)cc2)c(=Nc2ccccc2)s1 | 15.5% | > 50 µM (inactive) |
| COc1ccc(CCn2c(C)cc(C(=O)CCl)c2C)cc1OC | 82.1% | 9.84 µM |
| O=C(NC1CCCCC1)C(c1cccnc1)N(C(=O)CCl)c1ccc(F)cc1 (stereo not drawn) | 82.2% | 12.7 µM |
| COc1ccccc1NS(=O)(=O)c1cc([N+](=O)[O-])ccc1N/N=C/c1c(C)[nH]c2ccccc12 | 16.5% | > 50 µM (inactive) |
| COc1ccc(NC(=O)/C(Cl)=C(/Cl)S(=O)Cc2ccc(C)cc2)cn1 (stereo not drawn) | 54.7% | 23.4 µM |
| CCN1C/C(=C/c2cccc([N+](=O)[O-])c2)C(=O)/C(=C/c2cccc([N+](=O)[O-])c2)C1 | 84.7% | 22.6 µM |
| CCOC(=O)CC1C(=O)NCCN1c1nc2ccc(C)cn2c(=O)c1/C=C1\SC(=S)N(CC(C)C)C1=O (stereo not drawn) | 71.8% | 44.9 µM |
| Nc1nc(Sc2c([N+](=O)[O-])cc(C(F)(F)F)cc2[N+](=O)[O-])n[nH]1 | 44.1% | 21.9 µM |
| CC(=O)Nc1sc(/C(C#N)=C\c2cccc(Cl)c2)nc1-c1ccc(C)cc1 | 109% | 8.22 µM |
| CCOC(=O)C(=Cc1c[nH]c2ccc(S(=O)(=O)N(C)C)cc12)C(=O)OCC | 92.8% | 29.5 µM |
| CCc1ccccc1NC(=O)CN(C)C(=O)Cn1ncc(Cl)c(Cl)c1=O | 81.8% | 7.32 µM |
| Cc1ccc(C(=O)OCn2ncc(Cl)c(Cl)c2=O)cc1 | 76.2% | 18.9 µM |
| Cc1nc([N+](=O)[O-])c(Br)n1CC(=O)c1ccc(Cl)cc1 | 88.1% | 13.1 µM |
| O=c1[nH]sc2cc(F)ccc12 | 91.3% | 12 µM |
| N#Cc1ccccc1Cn1cc(/C=C/[N+](=O)[O-])c2ccccc21 | 83.6% | 34.6 µM |
| Cc1cccc(Cn2ncc(Cl)c(Cl)c2=O)c1 | 84.7% | 13 µM |
| Cc1ccc(C(C)C)c(OCC(=O)NN=C(CCl)CCl)c1 | 36.3% | > 50 µM (inactive) |
